{"source": "patent US20230277546A1", "about": "“AGENT FOR SUPPRESSING POST-SURGICAL CANCER RECURRENCE AND/OR METASTASIS” (ONO PHARMACEUTICAL CO., LTD., priority 2017, published 2023)", "key": {"[1]": {"system": "malignant lung tumor", "experiment": "Analysis of effects of landiolol hydrochloride in patients who underwent lung resection surgery (recurrence-free and overall survival, Kaplan-Meier)", "assay_type": "in vivo, human", "experimental": "Ethics committee approval was obtained before the study was started. Among the patients who underwent lung lobectomy, the outcomes were compared between those who were treated with landiolol hydrochloride and those who were not treated with it.\nFor each patient the following information was drawn from the medical chart from May 2012 to Mar. 31, 2017 and recorded in clinical report form (CRF). • Background of the patient (date of birth, sex, stage of lung cancer, weight, height, and performance status) • Date of the lung cancer surgery • Whether landiolol hydrochloride was administered or not, and if administered, the dose thereof • Date on which recurrence was diagnosed (date of diagnostic imaging or date on which recurrence was clinically diagnosed) • Date on which recurrence-free survival was last confirmed • Date of death • Date on which survival was last confirmed • Whether adjuvant chemotherapy was applied or not\nThe 2-year recurrence-free survival rate was compared between the patients who had been treated with landiolol hydrochloride and the patients who had not been treated with it to evaluate the effect of landiolol hydrochloride.\nKaplan-Meier method as described below was employed to calculate the 2-year recurrence-free survival rate.\nThe recurrence was defined as follows; • The recurrence included both of recurrence diagnosed on the basis of diagnostic imaging and clinical recurrence diagnosed on the basis of aggravation of a symptom instead of the diagnostic imaging. The date of recurrence was the date of the diagnostic imaging or the date on which the clinical recurrence was diagnosed. Even if an increased tumor marker was detected previously, the fact alone was not regarded as indicating recurrence and the date of recurrence was the date of the diagnostic imaging or the date on which the clinical recurrence was diagnosed. When no recurrence was diagnosed during the observation period, the patients were censored on the day of final confirmation of recurrence-free survival. • When recurrence was diagnosed by the diagnostic imaging, the event was regarded as having occurred on the date of the diagnostic imaging that gave the definitive diagnosis, not the date of the diagnostic imaging that raised the suspicion of recurrence. When recurrence was clinically diagnosed, the event was regarded as having occurred on the date of the diagnosis. • Definitive diagnosis of recurrence may be based on biopsy analysis. When recurrence was successfully diagnosed by the clinical diagnosis before the biopsy analysis, the event was regarded as having occurred on the date of the clinical diagnosis. When recurrence was not successfully diagnosed by the clinical diagnosis alone, but finally diagnosed by the biopsy analysis, the event was regarded as having occurred on the date of the biopsy analysis. • Occurrence of any one of secondary cancer, metachronous double cancers, and metachronous multiple cancers was not regarded as the event or the censor. Unless another event was observed, the patient was regarded as being recurrence-free. […]\nThe recurrence-free survival and the overall survival were calculated according to the following equations; • The recurrence-free survival (days)=“date of diagnosis of recurrence or date of death for any cause, whichever came earlier”−“date of surgery”+1 • The overall survival (days)=“date of death for any cause”−“date of surgery”+1 […]"}, "[2]": {"system": "non-small cell lung cancer", "experiment": "Multicenter, unblinded, randomized, controlled investigator-initiated clinical trial: perioperative landiolol hydrochloride to suppress postsurgical recurrence", "assay_type": "in vivo, human", "conditions": "2.5 μg/kg/min at the beginning, adjusted 0.5 to 5 μg/kg/min; continuous iv from immediately before anesthetic induction for 72 hours", "experimental": "Patients with non-small cell lung cancer who will undergo surgery for complete resection of the cancer are involved in the study. For evaluating effectiveness and safety of landiolol hydrochloride in the patients, a multicenter, unblinded, randomized, controlled, investigator-initiated clinical trial is carried out as described below. The control group includes the patients who undergo the surgery but are not treated with landiolol hydrochloride.\nPrimary endpoints: recurrence-free survival (RFS) over first two postoperative years and overall survival (OS)\nSecondary endpoints: <Effectiveness> For example, whether the patients are subjected to treatment of recurrence or not, and if subjected, the period until the treatment; the time until OS or the treatment of recurrence, <Safety> adverse events, incidence of postoperative complication, blood pressure, 12-lead electrocardiogram, and general laboratory test\nDosage: 2.5 μg/kg/min at the beginning and adjusted in the range of 0.5 to 5 μg/kg/min\nAdministration period: continuous intravenous administration is started immediately before the anesthetic induction and kept for 72 hours"}, "[3]": {"conditions": "vs control group without administration, after lung cancer surgery"}}, "note": "Structures can show the parent of a compound that is named as a salt."}
{"smiles": "CC1(C)OC[C@@H](COC(=O)CCc2ccc(OC[C@@H](O)CNCCNC(=O)N3CCOCC3)cc2)O1", "note": "[landiolol hydrochloride, Landiolol hydrochloride]", "values": [{"measurement": "Censor, (%)", "setting": "[1]; censored patients, first two postoperative years, test group N = 28", "result": "(89.3) %"}, {"measurement": "2-year Recurrence-free survival rate [95% CI]", "setting": "[1]; patients after lung resection surgery, intravenous continuous 2.5 μg/kg/min from induction to completion of anesthesia, N = 28, Kaplan-Meier", "result": 89.3, "unit": "%"}, {"measurement": "Event, (%)", "setting": "[1]; recurrence or death events within first two postoperative years, test group N = 28, 2.5 μg/kg/min iv continuous during anesthesia", "result": "(10.7) %"}, {"measurement": "overall survival (Kaplan-Meier curve, FIG. 2)", "setting": "[1]; [3]", "result": "tendency that the administration of landiolol hydrochloride prolongs"}, {"measurement": "recurrence-free survival (Kaplan-Meier curve, FIG. 1)", "setting": "[1]; [3]", "result": "tendency that the administration of landiolol hydrochloride prolongs"}, {"measurement": "effect to suppress recurrence and/or metastasis of the cancer", "setting": "[2]", "result": "confirms the effect"}]}
